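96-well plates; 48 h exposure; 5 concentrations. Endpoints by linear interpolation between flanking doses. Not reached: highest tested concentration assigned. GI50 marks 50% less growth.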 The source made the active and inactive calls. Rule as the data show it: active = GI50 up to about 1.1 µM and inactive = higher.
Key:
Experiment in all cases: inhibition of tumour cell growth, NCI panel, 48 h
MDA-MB-231 = tested on: MDA-MB-231
DU-145 = tested on: DU-145
MOLT-4 = tested on: MOLT-4
NCI/ADR-RES = tested on: NCI/ADR-RES
SN12C = tested on: SN12C
HT-29 = tested on: HT-29
NCI-H460 = tested on: NCI-H460
OVCAR-8 = tested on: OVCAR-8
Hs-578T = tested on: Hs-578T
SF-268 = tested on: SF-268
LOX IMVI = tested on: LOX IMVI
HCT-116 = tested on: HCT-116
OVCAR-5 = tested on: OVCAR-5
SW-620 = tested on: SW-620
HCT-15 = tested on: HCT-15
UACC-257 = tested on: UACC-257
CAKI-1 = tested on: CAKI-1
786-0 = tested on: 786-0
KM12 = tested on: KM12
RPMI-8226 = tested on: RPMI-8226

Row | SMILES | GI50 (MDA-MB-231) | GI50 (DU-145) | GI50 (MOLT-4) | GI50 (NCI/ADR-RES) | GI50 (SN12C) | GI50 (HT-29) | GI50 (NCI-H460) | GI50 (OVCAR-8) | GI50 (Hs-578T) | GI50 (SF-268) | GI50 (LOX IMVI) | GI50 (HCT-116) | GI50 (OVCAR-5) | GI50 (SW-620) | GI50 (HCT-15) | GI50 (UACC-257) | GI50 (CAKI-1) | GI50 (786-0) | GI50 (KM12) | GI50 (RPMI-8226)
1 | CC(C)(C)OC(=O)N1CCC23CCCC2C(=O)CC=C13 (stereo unspecified) | > 100 µM (inactive) | > 100 µM (inactive) | > 100 µM (inactive) | > 100 µM (inactive) | > 100 µM (inactive) | > 100 µM (inactive) | > 100 µM (inactive) | > 100 µM (inactive) | > 100 µM (inactive) | > 100 µM (inactive) | > 100 µM (inactive) | 72.4 µM (inactive) | > 100 µM (inactive) | > 100 µM (inactive) | > 100 µM | 11.8 µM (inactive) | > 100 µM (inactive) | > 100 µM (inactive) | > 100 µM (inactive) | –
2 | Cc1ccc(/C=C2\Cc3cccc(C)c3C2=O)c(C(=O)O)c1 | 66.2 µM (inactive) | > 100 µM (inactive) | 48.2 µM (inactive) | – | > 100 µM (inactive) | > 100 µM (inactive) | > 100 µM (inactive) | 97.7 µM (inactive) | > 100 µM (inactive) | > 100 µM (inactive) | 64.4 µM (inactive) | 72.9 µM (inactive) | > 100 µM (inactive) | > 100 µM (inactive) | 39.2 µM | > 100 µM (inactive) | 19.9 µM (inactive) | > 100 µM (inactive) | 55.5 µM (inactive) | 36.3 µM (inactive)
3 | CN(NC(=O)c1ccco1)C1=NCCN1 | > 100 µM (inactive) | > 100 µM (inactive) | > 100 µM (inactive) | > 100 µM (inactive) | > 100 µM (inactive) | > 100 µM (inactive) | > 100 µM (inactive) | > 100 µM (inactive) | > 100 µM (inactive) | > 100 µM (inactive) | > 100 µM (inactive) | > 100 µM (inactive) | > 100 µM (inactive) | > 100 µM (inactive) | > 100 µM | > 100 µM (inactive) | – | > 100 µM (inactive) | > 100 µM (inactive) | > 100 µM (inactive)
4 | Oc1c(Br)cc(CN(Cc2cc(Br)c(O)c(Br)c2)C2CCCCC2)cc1Br | > 100 µM (inactive) | > 100 µM (inactive) | > 100 µM (inactive) | > 100 µM (inactive) | > 100 µM (inactive) | > 100 µM (inactive) | – | > 100 µM (inactive) | > 100 µM (inactive) | > 100 µM (inactive) | > 100 µM (inactive) | > 100 µM (inactive) | > 100 µM (inactive) | > 100 µM (inactive) | > 100 µM | > 100 µM (inactive) | > 100 µM (inactive) | > 100 µM (inactive) | > 100 µM (inactive) | > 100 µM (inactive)
5 | FC1=C2CCCCCC2SC1(F)F (stereo unspecified) | 78.9 µM (inactive) | > 100 µM (inactive) | 16.4 µM (inactive) | > 100 µM (inactive) | – | 43.6 µM (inactive) | – | 70.3 µM (inactive) | > 100 µM (inactive) | > 100 µM (inactive) | 15.7 µM (inactive) | 37.8 µM (inactive) | > 100 µM (inactive) | 14.8 µM (inactive) | 34.4 µM | 99.3 µM (inactive) | 35.6 µM (inactive) | > 100 µM (inactive) | > 100 µM (inactive) | 28.6 µM (inactive)
6 | COc1cc(C)c2c(c1C=O)Oc1c(c(C)c(O)c3c1C(O)OC3=O)OC2=O (stereo unspecified) [STICTIC ACID] | 23.3 µM (inactive) | 87.5 µM (inactive) | 17.6 µM (inactive) | 37.2 µM (inactive) | > 100 µM (inactive) | 41.8 µM (inactive) | – | 31.4 µM (inactive) | 36.8 µM (inactive) | 21.4 µM (inactive) | 28.4 µM (inactive) | 36.8 µM (inactive) | > 100 µM (inactive) | 57.9 µM (inactive) | 17.6 µM | 47.9 µM (inactive) | > 100 µM (inactive) | 73.3 µM (inactive) | 19.6 µM (inactive) | 16 µM (inactive)
7 | C/C=C/OC1C(C2COC(C)(C)O2)OC2OC(C)(C)OC21 (stereo unspecified) | > 100 µM (inactive) | > 100 µM (inactive) | > 100 µM (inactive) | > 100 µM (inactive) | – | > 100 µM (inactive) | > 100 µM (inactive) | > 100 µM (inactive) | > 100 µM (inactive) | > 100 µM (inactive) | > 100 µM (inactive) | > 100 µM (inactive) | > 100 µM (inactive) | > 100 µM (inactive) | > 100 µM | > 100 µM (inactive) | > 100 µM (inactive) | > 100 µM (inactive) | – | > 100 µM (inactive)

Reference: ChEMBL document CHEMBL1201862, “PubChem BioAssay data set” (2004)
